Source: ChEMBL document CHEMBL5360557 (Eur J Med Chem, 2023)
pIC50: −log10 of the molar value.

Experiments:
Acetylcholinesterase = Acetylcholinesterase (Homo sapiens, UniProt P22303); assay: Inhibition of recombinant human AChE using acetylthiocholine iodide as substrate preincubated with enzyme for 5 mins followed by substrate addition and measured after 1 min by Ellman's method
Cholinesterase [1] = target: T1, Cholinesterase (Homo sapiens, UniProt P06276); assay: Inhibition of recombinant human BuChE using butyrylthiocholine iodide as substrate preincubated with enzyme for 5 mins followed by substrate addition and measured after 1 min by Ellman's method
T1 sequence (P06276 whole entry): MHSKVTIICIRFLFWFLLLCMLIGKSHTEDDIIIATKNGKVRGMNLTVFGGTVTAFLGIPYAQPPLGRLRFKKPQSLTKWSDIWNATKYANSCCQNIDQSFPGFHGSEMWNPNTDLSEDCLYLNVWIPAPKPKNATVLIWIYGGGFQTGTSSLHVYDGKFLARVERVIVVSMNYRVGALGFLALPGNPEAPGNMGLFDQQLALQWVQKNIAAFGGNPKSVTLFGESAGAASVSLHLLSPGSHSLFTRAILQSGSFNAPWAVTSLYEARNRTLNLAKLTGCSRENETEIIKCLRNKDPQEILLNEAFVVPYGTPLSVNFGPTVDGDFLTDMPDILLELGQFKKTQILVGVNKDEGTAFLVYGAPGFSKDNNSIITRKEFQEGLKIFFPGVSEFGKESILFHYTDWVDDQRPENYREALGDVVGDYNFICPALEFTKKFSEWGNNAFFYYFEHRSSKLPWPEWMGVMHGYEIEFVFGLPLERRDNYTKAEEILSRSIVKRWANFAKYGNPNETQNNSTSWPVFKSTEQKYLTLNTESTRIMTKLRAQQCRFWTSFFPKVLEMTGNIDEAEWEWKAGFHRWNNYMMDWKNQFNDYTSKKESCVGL

Cholinesterase [2] = target: T1, Cholinesterase; assay: Inhibition of recombinant human BuChE using butyrylthiocholine iodide as substrate at 10 uM preincubated with enzyme for 5 mins followed by substrate addition and measured after 1 min by Ellman's method relative to control; conditions: time 6.0 min
[3] = Cytotoxicity against human HepG2 cells assessed as inhibition of cell growth incubated for 24 hrs by MTT assay; type: toxicity, cell-based
in vitro = conditions: PAMPA
Description: Permeability of the compound incubated for 3 to 6 hrs by PAMPA-BBB assay

[4] = Cytotoxicity against human SH-SY5Y cells assessed as inhibition of cell growth incubated for 24 hrs by MTT assay; type: toxicity, cell-based

Acetylcholinesterase, sequence (P22303 whole entry): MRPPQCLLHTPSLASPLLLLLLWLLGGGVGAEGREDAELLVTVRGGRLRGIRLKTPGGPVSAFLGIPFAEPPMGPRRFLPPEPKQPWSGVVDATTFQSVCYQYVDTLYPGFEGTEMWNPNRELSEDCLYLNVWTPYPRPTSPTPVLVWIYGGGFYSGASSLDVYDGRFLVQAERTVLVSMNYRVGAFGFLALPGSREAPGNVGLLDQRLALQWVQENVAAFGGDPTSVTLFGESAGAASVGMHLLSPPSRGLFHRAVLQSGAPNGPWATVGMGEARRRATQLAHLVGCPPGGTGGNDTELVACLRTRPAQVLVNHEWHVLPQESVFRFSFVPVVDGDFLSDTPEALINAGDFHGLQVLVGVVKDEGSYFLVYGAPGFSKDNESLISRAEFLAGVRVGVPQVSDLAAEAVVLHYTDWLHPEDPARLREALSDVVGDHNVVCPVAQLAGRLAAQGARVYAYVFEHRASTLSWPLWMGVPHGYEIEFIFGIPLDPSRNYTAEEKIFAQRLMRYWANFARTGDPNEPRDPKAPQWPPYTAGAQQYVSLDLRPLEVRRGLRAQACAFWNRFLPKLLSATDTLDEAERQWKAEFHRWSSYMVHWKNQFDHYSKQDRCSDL

Structure (SMILES)	pIC50 (Acetylcholinesterase)	pIC50 (Cholinesterase [1])	inhibition (Cholinesterase [2]) [%]	IC50 at 24 h [3] [µM]	Papp (in vitro) [×10⁻⁶ cm/s]	IC50 at 24 h [4] [µM]
COc1cccc(CNCc2ccccc2)c1OCc1ccccc1	< 5.00	5.82	78			
CCCN(CCCc1ccccc1O)Cc1cccc(OC)c1OCc1ccccc1	< 5.00	6.66	95			
COc1cccc(CN(CCCc2ccccc2F)C2CCCC2)c1OCc1ccccc1	< 5.00	8.22	99	28	61	55
CCCN(CCCc1cccc(O)c1)Cc1cccc(OC)c1OCc1ccccc1	< 5.00	6.80	96			
CCCCCCN(CCCc1ccccc1)Cc1cccc(OC)c1OCc1ccccc1	< 5.00	7.40	95	106	9	110
C=CCN(CCc1cccc(OC)c1)Cc1cccc(OC)c1OCc1ccccc1	< 5.00	5.82	76			
COc1cccc(/C=N/CCc2ccc(O)cc2)c1OCc1ccccc1	< 5.00	5.10	48			
CCCN(CCc1ccc(OC)cc1)Cc1cccc(OC)c1OCc1ccccc1	< 5.00	5.85	82			
C=CCN(CCc1ccccc1OC)Cc1cccc(OC)c1OCc1ccccc1	< 5.00	6.52	90			
CCCN(CCCc1cccc(F)c1)Cc1cccc(OC)c1OCc1ccccc1	< 5.00	7.41	97	41	27	123
C#CCOc1ccc(CCN(CC=C)Cc2cccc(OC)c2OCc2ccccc2)cc1	< 5.00	5.66	64			
C#CCN(CCc1ccc(OC)cc1)Cc1cccc(OC)c1OCc1ccccc1	< 5.00	5.89	66			
COc1cccc(CN(CCCCc2ccccc2)CCCC(C)C)c1OCc1ccccc1	< 5.00	6.54	87			
CCCN(CCCc1ccccc1)Cc1cccc(OC)c1OCc1ccccc1	< 5.00	7.40	98	48	32	> 63
C=CCN(CCc1ccc(OC)cc1)Cc1cccc(OC)c1OCc1ccccc1	< 5.00	5.70	72			
CO/N=C(\C(=O)N[C@@H]1C(=O)N2C(C(=O)O)=C(COC(N)=O)CS[C@H]12)c1ccco1 [CEFUROXIME]					0.6	
C#CCOc1ccc(CCN(CC#C)Cc2cccc(OC)c2OCc2ccccc2)cc1	< 5.00	6.70	72			
C=CCOc1ccc(CCN(CC=C)Cc2cccc(OC)c2OCc2ccccc2)cc1	< 5.00	5.89	71			
COc1ccc(CCNCc2cccc(OC)c2OCc2ccccc2)cc1	< 5.00	6.40	94			
CCCCCCN(CCCCc1ccccc1)Cc1cccc(OC)c1OCc1ccccc1	< 5.00	6.15	78			
C#CCN(CCCc1ccccc1)Cc1cccc(OC)c1OCc1ccccc1	< 5.00	6.64	76			
CCN(CCc1ccc(OC)cc1)Cc1cccc(OC)c1OCc1ccccc1	< 5.00	5.60	77			
COc1cccc(CCNCc2cccc(OC)c2OCc2ccccc2)c1	< 5.00	5.60	77			
CCCN(CCc1ccc(O)cc1)Cc1cccc(OC)c1OCc1ccccc1	< 5.00	7.05	95	43	14	44
C#CCN(CCc1ccccc1OC)Cc1cccc(OC)c1OCc1ccccc1	< 5.00	< 5.00	35			
C#CCN(CCc1ccc(OCC=C)cc1)Cc1cccc(OC)c1OCc1ccccc1	< 5.00	< 5.00	42			
CCCCCCCCCCCCCCN(CCCCc1ccccc1)Cc1cccc(OC)c1OCc1ccccc1	< 5.00	< 5.00	25			
CCCN(CCc1ccccc1)Cc1cccc(OC)c1OCc1ccccc1	< 5.00	6.30	91			
CCN(CCc1ccccc1OC)Cc1cccc(OC)c1OCc1ccccc1	< 5.00	6.15	94			
C=CCN(CCc1ccccc1)Cc1cccc(OC)c1OCc1ccccc1	< 5.00	6.40	88			
